{"source": "ChEMBL document CHEMBL3603739", "about": "“Novel diazabicycloalkane delta opioid agonists” (Bioorg Med Chem, 2015)", "key": {"[1]": {"biological_target": "Kappa-type opioid receptor (Mus musculus, UniProt P33534)", "sequence (P33534 whole entry)": "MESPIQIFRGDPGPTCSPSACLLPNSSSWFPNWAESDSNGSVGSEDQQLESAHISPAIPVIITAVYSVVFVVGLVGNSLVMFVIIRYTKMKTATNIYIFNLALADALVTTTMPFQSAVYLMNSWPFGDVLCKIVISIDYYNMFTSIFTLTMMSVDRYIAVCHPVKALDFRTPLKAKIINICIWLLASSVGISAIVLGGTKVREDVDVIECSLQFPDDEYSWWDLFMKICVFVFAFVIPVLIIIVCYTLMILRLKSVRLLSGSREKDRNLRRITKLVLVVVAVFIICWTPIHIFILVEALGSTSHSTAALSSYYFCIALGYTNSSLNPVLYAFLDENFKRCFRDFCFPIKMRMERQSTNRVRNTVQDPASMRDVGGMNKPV", "assay": "Displacement of [3H]U-69,593 from kappa opioid receptor in mouse brain membranes by liquid scintillation counting method", "type": "cell membranes, Membrane"}, "Mus musculus [2]": {"species_on_record": "Mus musculus", "assay": "Selectivity index, ratio of Ki for mu opioid receptor in mouse brain membranes to Ki for delta opioid receptor in mouse brain membranes", "type": "cell membranes"}, "Mus musculus [3]": {"species_on_record": "Mus musculus", "assay": "Selectivity index, ratio of Ki for kappa opioid receptor in mouse brain membranes to Ki for delta opioid receptor in mouse brain membranes", "type": "cell membranes"}, "NG108-15 [4]": {"tested_on": "NG108-15", "assay": "Intrinsic agonist activity at delta opioid receptor in mouse/rat NG108-15 cells assessed as increase in ERK1/2 phosphorylation at 0.1 to 5 uM incubated for 20 mins by Western blot method", "type": "cell-based"}, "NG108-15 [5]": {"tested_on": "NG108-15", "assay": "Intrinsic agonist activity at delta opioid receptor in mouse/rat NG108-15 cells assessed as increase in ERK1/2 phosphorylation At 1 nM pre-treated with 500 nM opioid antagonist naloxone for 5 mins followed by compound exposure for 20 mins by Western blot method", "type": "cell-based"}, "[6]": {"biological_target": "Delta-type opioid receptor (Mus musculus, UniProt P32300)", "sequence (P32300 whole entry)": "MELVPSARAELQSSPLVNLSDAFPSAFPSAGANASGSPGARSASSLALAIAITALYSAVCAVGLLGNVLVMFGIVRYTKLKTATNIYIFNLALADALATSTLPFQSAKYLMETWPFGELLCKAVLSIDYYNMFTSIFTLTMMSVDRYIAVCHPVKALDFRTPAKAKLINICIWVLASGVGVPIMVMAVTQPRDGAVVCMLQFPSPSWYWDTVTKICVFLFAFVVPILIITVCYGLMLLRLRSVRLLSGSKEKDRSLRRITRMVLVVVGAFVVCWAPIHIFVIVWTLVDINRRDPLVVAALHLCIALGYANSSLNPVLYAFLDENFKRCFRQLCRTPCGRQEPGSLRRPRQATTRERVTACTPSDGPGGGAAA", "assay": "Displacement of [3H]DPDPE from delta opioid receptor in mouse brain membranes by liquid scintillation counting method", "type": "cell membranes, Membrane"}, "Mu-type opioid receptor": {"biological_target": "Mu-type opioid receptor (Mus musculus, UniProt P42866)", "sequence (P42866 whole entry)": "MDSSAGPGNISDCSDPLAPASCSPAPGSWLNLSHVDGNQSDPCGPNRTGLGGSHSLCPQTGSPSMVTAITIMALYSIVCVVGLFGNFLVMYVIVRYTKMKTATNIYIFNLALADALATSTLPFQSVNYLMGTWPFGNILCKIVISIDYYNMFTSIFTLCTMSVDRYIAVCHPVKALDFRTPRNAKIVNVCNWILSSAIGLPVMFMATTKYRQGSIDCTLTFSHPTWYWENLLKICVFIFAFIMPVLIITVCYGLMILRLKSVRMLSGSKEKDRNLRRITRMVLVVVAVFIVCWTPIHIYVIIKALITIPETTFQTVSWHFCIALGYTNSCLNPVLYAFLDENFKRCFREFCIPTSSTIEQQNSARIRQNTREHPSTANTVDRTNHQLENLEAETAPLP", "assay": "Displacement of [3H]DAMGO from mu opioid receptor in mouse brain membranes by liquid scintillation counting method", "type": "cell membranes, Membrane"}, "NG108-15 [7]": {"tested_on": "NG108-15", "assay": "Intrinsic agonist activity at delta opioid receptor in mouse/rat NG108-15 cells assessed as increase in ERK1/2 phosphorylation at 50 nM pre-treated with 500 nM opioid antagonist naloxone for 5 mins followed by compound exposure for 20 mins by Western blot method", "type": "cell-based"}, "NG108-15 [8]": {"tested_on": "NG108-15", "assay": "Intrinsic agonist activity at delta opioid receptor in mouse/rat NG108-15 cells assessed as increase in ERK1/2 phosphorylation at 1 to 50 uM incubated for 20 mins by Western blot method", "type": "cell-based"}, "[9]": {"biological_target": "Delta-type opioid receptor (Mus musculus) (UniProt P32300)", "sequence (P32300 whole entry)": "as the sequence (P32300 whole entry) above", "assay": "Agonist activity at delta opioid receptor in mouse vas deferens assessed as reduction in electric field stimulation-induced twitch contractions amplitude"}, "[10]": {"biological_target": "Delta-type opioid receptor (Mus musculus) (UniProt P32300)", "assay": "Agonist activity at delta opioid receptor in mouse vas deferens assessed as reduction in electric field stimulation-induced twitch contractions amplitude relative to control"}, "[11]": {"biological_target": "Delta-type opioid receptor (Mus musculus) (UniProt P32300)", "assay": "Agonist activity at delta opioid receptor in mouse vas deferens assessed as reduction in electric field stimulation-induced twitch contractions amplitude in presence of 1 nM natrindole"}, "NG108-15 [12]": {"tested_on": "NG108-15", "assay": "Intrinsic agonist activity at delta opioid receptor in mouse/rat NG108-15 cells assessed as increase in ERK1/2 phosphorylation At 5 nM pre-treated with 500 nM opioid antagonist naloxone for 5 mins followed by compound exposure for 20 mins by Western blot method", "type": "cell-based"}, "NG108-15 [13]": {"tested_on": "NG108-15", "assay": "Intrinsic agonist activity at delta opioid receptor in mouse/rat NG108-15 cells assessed as increase in ERK1/2 phosphorylation by Western blot method", "type": "cell-based", "conditions": "TDE = time-dependent effect"}, "NG108-15 [14]": {"tested_on": "NG108-15", "assay": "Intrinsic agonist activity at delta opioid receptor in mouse/rat NG108-15 cells assessed as increase in ERK1/2 phosphorylation at 10 nM pre-treated with 500 nM opioid antagonist naloxone for 5 mins followed by compound exposure for 20 mins by Western blot method", "type": "cell-based"}, "NG108-15 [15]": {"tested_on": "NG108-15", "assay": "Intrinsic agonist activity at delta opioid receptor in mouse/rat NG108-15 cells assessed as increase in ERK1/2 phosphorylation at 0.1 to 100 uM iincubated for 20 mins by Western blot method", "type": "cell-based"}, "NG108-15 [16]": {"tested_on": "NG108-15", "assay": "Toxicity in mouse/rat NG108-15 cells", "type": "cell-based"}}, "note": "Active and inactive are the calls of the source. The rule behind the calls is not given here.", "data": [{"smiles": "C=CCN1C2CCC1CN(C(c1ccc(C(=O)N(CC)CC)cc1)c1cccc(OC)c1)CC2", "note": "(mixture of isomers)", "values": [{"measurement": "Ki", "setting": "[1]", "value": 2450, "unit": "nM"}, {"measurement": "Ratio Ki", "setting": "Mus musculus [2]", "value": 99.5}, {"measurement": "Ratio Ki", "setting": "Mus musculus [3]", "value": 1330}, {"measurement": "Activity", "setting": "NG108-15 [4]", "value": "Active"}, {"measurement": "Activity", "setting": "NG108-15 [5]", "value": "Active"}, {"measurement": "Ki", "setting": "[6]", "value": 1.84, "unit": "nM"}, {"measurement": "Ki", "setting": "Mu-type opioid receptor", "value": 183, "unit": "nM"}]}, {"smiles": "C=CCN1C2CCCC1CN(C(c1ccc(C(=O)N(CC)CC)cc1)c1cccc(OC)c1)CC2", "note": "(mixture of isomers)", "values": [{"measurement": "Ki", "setting": "[1]", "value": 4250, "unit": "nM"}, {"measurement": "Ratio Ki", "setting": "Mus musculus [2]", "value": 104}, {"measurement": "Ratio Ki", "setting": "Mus musculus [3]", "value": 467}, {"measurement": "Activity", "setting": "NG108-15 [7]", "value": "Active"}, {"measurement": "Activity", "setting": "NG108-15 [8]", "value": "Active"}, {"measurement": "Activity", "setting": "[9]", "value": "Active"}, {"measurement": "Ki", "setting": "[6]", "value": 9.1, "unit": "nM"}, {"measurement": "Ki", "setting": "Mu-type opioid receptor", "value": 950, "unit": "nM"}, {"measurement": "Imax", "setting": "[10]", "value": 90, "unit": "%"}, {"measurement": "Activity", "setting": "[11]", "value": "inactive"}]}, {"smiles": "C=CCN1CC2CC(C1)N2C(c1ccc(C(=O)N(CC)CC)cc1)c1cccc(OC)c1", "note": "(racemic)", "values": [{"measurement": "Ki", "setting": "[1]", "value": 4000, "unit": "nM"}, {"measurement": "Ratio Ki", "setting": "Mus musculus [2]", "value": 653}, {"measurement": "Ratio Ki", "setting": "Mus musculus [3]", "value": 2270}, {"measurement": "Activity", "setting": "NG108-15 [8]", "value": "Active"}, {"measurement": "Activity", "setting": "[9]", "value": "Active"}, {"measurement": "Ki", "setting": "[6]", "value": 1.76, "unit": "nM"}, {"measurement": "Ki", "setting": "Mu-type opioid receptor", "value": 1150, "unit": "nM"}, {"measurement": "Imax", "setting": "[10]", "value": 90, "unit": "%"}, {"measurement": "Activity", "setting": "[11]", "value": "inactive"}]}, {"smiles": "C=CCN1CC2CCC(C1)N2C(c1ccc(C(=O)N(CC)CC)cc1)c1cccc(OC)c1", "note": "(racemic)", "values": [{"measurement": "Ki", "setting": "[1]", "value": 300, "unit": "nM"}, {"measurement": "Ratio Ki", "setting": "Mus musculus [2]", "value": 11300}, {"measurement": "Ratio Ki", "setting": "Mus musculus [3]", "value": 882}, {"measurement": "Activity", "setting": "NG108-15 [4]", "value": "Active"}, {"measurement": "Activity", "setting": "NG108-15 [12]", "value": "Active"}, {"measurement": "Activity", "setting": "[9]", "value": "Active"}, {"measurement": "Ki", "setting": "[6]", "value": 0.34, "unit": "nM"}, {"measurement": "Ki", "setting": "Mu-type opioid receptor", "value": 3830, "unit": "nM"}, {"measurement": "Imax", "setting": "[10]", "value": 90, "unit": "%"}, {"measurement": "Activity", "setting": "[11]", "value": "inactive"}]}, {"smiles": "C=CCN1CC2CCCC(C1)N2C(c1ccc(C(=O)N(CC)CC)cc1)c1cccc(OC)c1", "note": "(racemic)", "values": [{"measurement": "Ki", "setting": "[1]", "value": 2200, "unit": "nM"}, {"measurement": "Ratio Ki", "setting": "Mus musculus [2]", "value": 1210}, {"measurement": "Ratio Ki", "setting": "Mus musculus [3]", "value": 1170}, {"measurement": "Activity", "setting": "NG108-15 [7]", "value": "Active"}, {"measurement": "Activity", "setting": "NG108-15 [8]", "value": "Active"}, {"measurement": "Ki", "setting": "[6]", "value": 1.88, "unit": "nM"}, {"measurement": "Ki", "setting": "Mu-type opioid receptor", "value": 2270, "unit": "nM"}]}, {"smiles": "C=CCN1C[C@H](C)N([C@H](c2ccc(C(=O)N(CC)CC)cc2)c2cccc(OC)c2)C[C@H]1C", "note": "[SNC-80]", "values": [{"measurement": "Activity", "setting": "NG108-15 [13]", "value": "tde"}, {"measurement": "Activity", "setting": "NG108-15 [14]", "value": "inactive"}, {"measurement": "Activity", "setting": "[9]", "value": "Active"}, {"measurement": "Activity", "setting": "NG108-15 [15]", "value": "Dose-dependent effect"}, {"measurement": "Activity", "setting": "NG108-15 [16]", "value": "Toxic"}, {"measurement": "Activity", "setting": "[11]", "value": "inactive"}]}]}
